Results published in US8410177B2, “Curcumin derivatives” (Indian Institute of Technology Bombay, priority 2009, dated 2013).

Row | Structure (SMILES) | melting point
1 | COc1ccc(/C=C/C(=O)C2C(=O)CC(c3ccc(OC)cc3)[C@H]([N+](=O)[O-])C2c2ccc(OC)cc2)cc1 (some centres unmarked) [IX-1, 3,5-Bis(4-Methoxyphenyl)-2-((E)-3-(4-Methoxyphenyl)acryloyl)-4-Nitrocyclohexanone] | 200 to 202 °C
2 | COc1ccc(/C=C/C(=O)C2C(=O)C[C@H](c3ccc(OC)cc3)[C@H]([N+](=O)[O-])[C@H]2c2ccc(OC)c(OC)c2)cc1 (some centres unmarked) [IX-2, 3-(3,4-Dimethoxyphenyl)-5-(4-Methoxyphenyl)-2-((E)-3-(4-Methoxyphenyl)acryloyl)-4-Nitrocyclohexanone] | 126 to 128 °C
3 | COc1ccc(/C=C/C(=O)C2C(=O)C[C@H](c3ccc(OC)cc3)[C@H]([N+](=O)[O-])[C@H]2c2ccccc2)cc1 (some centres unmarked) [IX-3, 5-(4-Methoxyphenyl)-2-((E)-3-(4-Methoxyphenyl)acryloyl)-4-Nitro-3-Phenylcyclohexanone] | 164 to 165 °C
4 | COc1ccc(/C=C/C(=O)C2C(=O)C[C@H](c3ccc(OC)cc3)[C@H]([N+](=O)[O-])C2c2ccc(Cl)cc2)cc1 (some centres unmarked) [IX-4, 3-(4-Chlorophenyl)-5-(4-Methoxyphenyl)-2-((E)-3-(4-Methoxyphenyl)acryloyl)-4-Nitrocyclohexanone] | 156 to 158 °C
5 | COc1ccc(/C=C/C(=O)C2C(=O)C[C@H](c3ccc(OC)cc3)[C@H]([N+](=O)[O-])[C@H]2c2cccs2)cc1 (some centres unmarked) [IX-5, 5-(4-Methoxyphenyl)-2-((E)-3-(4-Methoxyphenyl)acryloyl)-4-Nitro-3-(Thiophen-2-yl)cyclohexanone] | 160 to 162 °C
6 | COc1ccc(/C=C/C(=O)C2C(=O)C[C@H](c3ccc(OC)cc3)[C@H]([N+](=O)[O-])[C@H]2c2ccc3c(c2)OCO3)cc1 (some centres unmarked) [IX-6, 3-(Benzo[a][1,3]dioxol-5-yl)-5-(4-Methoxyphenyl)-2-((E)-3-(4-Methoxyphenyl)acryloyl)-4-Nitrocyclohexanone] | 154 to 156 °C
7 | COc1ccc(/C=C/C(=O)C2C(=O)C[C@H](c3ccc(OC)cc3)[C@H]([N+](=O)[O-])[C@H]2c2ccco2)cc1 (some centres unmarked) [IX-7, 3-(Furan-2-yl)-5-(4-Methoxyphenyl)-2-((E)-3-(4-Methoxyphenyl)acryloyl)-4-Nitrocyclohexanone] | 192 °C
8 | COc1ccc(/C=C/C(=O)C2C(=O)C[C@H](c3ccc(OC)cc3)[C@H]([N+](=O)[O-])[C@H]2/C=C/c2ccccc2)cc1 (some centres unmarked) [IX-9, 5-(4-Methoxyphenyl)-2-((E)-3-(4-Methoxyphenyl)acryloyl)-4-nitro-3-styrylcyclohexanone] | 88 to 90 °C
9 | COc1ccc(C2C(C(=O)/C=C/c3ccc(OC)c(OC)c3)C(=O)C[C@H](c3ccc(OC)c(OC)c3)[C@@H]2[N+](=O)[O-])cc1 (some centres unmarked) [IX-10, 5-(3,4-dimethoxyphenyl)-3-(4-methoxyphenyl)-2-((E)-3-(3,4-dimethoxyphenyl)acryloyl)-4-Nitrocyclohexanone] | 158 to 160 °C
10 | COc1ccc([C@H]2C(C(=O)/C=C/c3ccc(O)c(OC)c3)C(=O)C[C@H](c3ccc(O)c(OC)c3)[C@@H]2[N+](=O)[O-])cc1 (some centres unmarked) [IX-11, 5-(4-hydroxy-3-methoxyphenyl)-2-((E)-3-(4-hydroxy-3-methoxyphenyl)acryloyl)-3-(4-methoxyphenyl)-4-nitrocyclohexanone] | 83 to 85 °C
11 | COc1ccc([C@H]2C(C(=O)/C=C/c3ccccc3)C(=O)C[C@H](c3ccccc3)[C@@H]2[N+](=O)[O-])cc1 (some centres unmarked) [IX-12, 3-(4-methoxyphenyl)-4-nitro-5-phenyl-2-((E)-3-phenylacryloyl)cyclohexanone] | 108 to 110 °C
12 | COc1ccc(/C=C/C(=O)C2C(=O)C[C@H](c3ccc(OC)cc3)[C@H]([N+](=O)[O-])[C@H]2C2CCCCC2)cc1 (some centres unmarked) [IX-14, 3-cyclohexyl-5-(4-methoxyphenyl)-2-((E)-3-(4-methoxyphenyl)acryloyl)-4-nitrocyclohexanone] | 203 to 205 °C
13 | CCCC[C@H]1C(C(=O)/C=C/c2ccc(OC)cc2)C(=O)C[C@H](c2ccc(OC)cc2)[C@@H]1[N+](=O)[O-] (some centres unmarked) [IX-15, 3-butyl-5-(4-methoxyphenyl)-2-((E)-3-(4-methoxyphenyl)acryloyl)-4-nitrocyclohexanone] | 127 to 129 °C
14 | COc1ccc([C@H]2C(C(=O)/C=C/c3ccc(OCc4ccccc4)c(OC)c3)C(=O)C[C@H](c3ccc(OCc4ccccc4)cc3)[C@@H]2[N+](=O)[O-])cc1 (some centres unmarked) [IX-16, 2-((E)-3-(4-(benzyloxy)-3-methoxyphenyl)acryloyl)-5-(4-(benzyloxy)phenyl)-3-(4-methoxyphenyl)-4-nitrocyclohexanone] | 76 to 78 °C
